The values below come from patent US9650405B2, “Modified sophorolipids as oil solubilizing agents” (Polytechnic Institute of New York University, priority 2010, dated 2017).

By Solubility is commonly meant the concentration that dissolves in the medium under given conditions. Lower therefore signals little dissolved substance.

For series [1] the following is noted: SL-esters; from earlier publication in Colloids and surfaces, 2004, 240, 75; cited from earlier work.
Series [2] is described as follows: Emulsion type: dilution test and oil soluble dye staining. It counts as physicochemical. The following applies: 2%-by-weight relative to water phase, oil/water 5/5 and 7/3. The procedure:
In this test the emulsion is diluted either with oil (O) or water (W). If the emulsion is O/W type and it is diluted with water, it will remain stable as water is the dispersion medium. However, if the emulsion is O/W type and it is diluted with oil, the emulsion will break as oil and water are not miscible with each other. […] Emulsions of the O/W type have separated layers after dilution with pure oil but form a homogenous phase when diluted by water. Unless otherwise specified, the emulsion type formed by MSLs were oil in water.
In FIG. 13B, the tube on the left was diluted with 1 mL of oil whereas the tube on right was diluted with water. Visual observation of the tubes in FIG. 13B supports that the emulsions formed are indeed O/W emulsions.
Oil Red O was applied as an oil soluble dye and emerald green as water soluble dye in the process of emulsion preparation. Observations of emulsions were made before and after staining under optical microscope at 400× magnification (FIG. 14). […] The formation of O/W emulsions and not W/O emulsions with this set of MSL compounds would not be obvious to one skilled in the art. We believe that O/W emulsions are formed by this set of MSLs due to that large sophorose polar head groups requires relatively more space than the lipid tails and, therefore self-assemble into spherical type structures where disaccharide groups are locating outside the droplets.

A short description of series [3]: Emulsion stability based on phase separation. It counts as physicochemical. The following applies: paraffin oil/water 5/5, 2%-by-weight emulsifier, after 24 hours at 25° C. The procedure: The emulsion was obtained by homogenizing the oil and water mixture and was allowed to settle at room temperature for 24 hours. […] Then, this mixture was homogenized at 13,000 rpm for 2 minutes. Thereafter, the resulting emulsion was left unagitated at 25° C. for 24 hours. Surfactants which give a larger emulsion phase are denoted as having higher emulsion effectiveness (Process Safety and Environment protection, 2005, 83, 38-46). […] Thus, unexpectedly, that longer alkyl chains, at least up to butyl and hexyl, provided improved interfacial stability at the paraffin oil/water interface. […] Apparently, ester bonds of SL-esters are less disruptive to organization at the oil water interface than amide bonds of SL-amides. […] The acidic SL (3) gave an 8% emulsion layer, much lower than the MSL examples given herein. Similarly, the natural SL (1) mixture gave a 10% emulsion layer. This performance is also far below that of SL-butyl amide (24), hexyl amide (25), butyl ester (8) and hexyl ester (16).
After homogenized at 13,000 rpm for 2 minutes, the emulsions were kept at room temperature and separation of the respective oil, emulsion and water layers was recorded for up to 1 month.

Series [4] in a line: Crude oil clearing/displacement activity. The following applies: 20 μL of 1 mg/mL solution. The procedure: Oil cleaning assays were performed using Louisiana Crude, Arabian Light Crude, and Prudhoe Bay Crude as the oil phase. In one study, the oil clearing/displacement activity of MSLs were assessed using a crude oil layer on top of sea water in order to simulate oil spill type conditions. Sea water (20 mL) was transferred to plastic Petri dishes and 20 μL of a crude oil type was added on top of the water to create an oil layer. Subsequently, a 20 μL aliquot of MSL solution (1 mg/mL) was added dropwise to the top of the oil layer. The instantaneous formation of an oil clearing zone as well as the diameter of the clearing zone was determined as a function of the dispersant used. […] Furthermore, the oil displacement activity of SL-ethyl ester and SL-butyl ester was slightly higher than Triton-X-100 for Arabian Light crude.

A short description of series [5]: Solubility in distilled water without additives, compounds alone and mixed. The following applies: without any additives.
Series [6] can be described thus: Crude oil emulsification activity (turbidity at 610 nm). The following applies: emulsifier 1 mg/mL. As for the experimental part:
Emulsification activity was assessed using Louisiana Crude, Arabian Light Crude, and Prudhoe Bay Crude as the oil phase. A 2 mL solution with emulsifier concentration of 1 mg/mL was prepared. A crude oil (10 mg) was added to the emulsifier aqueous solution, the mixture was vortexed for one minute and the emulsified mixture was allowed to stand for 20 minutes. Emulsification activity was determined by measuring turbidity of the emulsion mixture in a spectrophotometer at 610 nm. The results obtained using SL-ethyl ester, SL-butyl ester, the natural sophorolipid mixture and Triton X-100 as emulsifiers are expressed as D610 and are listed in Table 8. […] Furthermore, a remarkable improvement in emulsification activity was obtained for SL-butyl ester relative to the natural sophorolipid mixture. These comparative results for emulsification of Louisiana Crude, Arabian Light Crude, and Prudhoe Bay Crude oil phase could not be anticipated by one skilled in the art.

Series [7] in a line: Solubility of MSLs in water. The source says:
If the material precipitates upon cooling or was to some extent insoluble, the insoluble material was separated by filtration, dried and weighed.

`CCOC(=O)CCCCCCCC=CCCCCCCC(C)OC1OC(CO)C(O)C(O)C1OC1OC(CO)C(O)C(O)C1O` (stereo not drawn) [Compound 7, SL-Ethyl Ester]: the “CMC Range” value in series [1] is recorded as 36-40 10^−6M. Also, the “MST (minimum surface tension)” value in series [1] is recorded as 37.5 mN/m. For the same molecule, the “emulsion type by Oil Red O staining” value in series [2] is on record as “O/W”. In addition, the emulsion layer percentage entry in series [3] is recorded as “no emulsion layer was observed”. Moreover, the entries for the “Oil displacement activity (diameter of the clearing zone)” value in series [4] (Arabian Light Crude on sea water), in series [4] (Louisiana Crude on sea water) and in series [4] (Prudhoe Bay Crude on sea water) were 6.5 ± 0.2 cm, 6.3 ± 0.9 cm and 6.6 ± 0.7 cm, respectively. Besides, the “solubility in distilled water” value in series [5] is “less than 1 mg/L”. Further, the “Emulsification activity (D610)” value in series [6] (Arabian Crude) is reported as 0.91; in series [6] (Louisiana Crude), 0.42; in series [6] (Prudhoe Crude) it was 0.32. Also, the Solubility in series [7] was less than 3000 µg/mL.
